“Also recorded” adds a separate entry of the source.
Assays:
Assay type in all cases: in vivo
[1] = system: sheep model for pulmonary fibrosis, bleomycin-injured lung segments; assay: Example 2: segmental lung compliance (Cseg) in bleomycin-injured sheep lung segments
Method: Segmental compliance (Cseg) was assessed using pressure responses to flow in the different segments as indicated FIG. 2 in awake, consciously breathing sheep using a wedged-bronchoscope technique. Briefly, a custom-built Segmental Lung Airway Monitoring (SLAM) System was used to monitor the segmental flow and pressure. After first determining the bronchoscope resistance to the set flow, the bronchoscope was wedged into an airway in the lung segment of interest and a constant flow (6 mL/s) of 5% C02 in air was passed through the working channel of the bronchoscope.
Segmental lung compliance was calculated. Briefly, after the bronchoscope was wedged into the specific region of the lung, pressure was allowed to reach a steady state. After approximately 5 s at steady state, airflow was interrupted turning off the airflow supply. Segmental compliance was then calculated from the pressure-flow decay curve generated from this procedure. The process was repeated 3 times for each segment and expressed as an average value for Cseg. The pressure was recorded by a PM-1000 Transducer Amplifiers (CWE Inc., Admore, USA) and flow was recorded using a mass flow meter (824-S, Sierra Instruments, Monterey, USA). Data were acquired with Data Acquisition Card (PCI-6233; National Instruments Corp., Austin, USA) and was analysed with the SLAM system (Latitude E6520, Dell Computer Corporation, Texas USA and LabVIEW, National Instruments Corp., Austin, USA). All resistance measurements were corrected for the resistance of flow through the working channel of the bronchoscope.
(§1) In this study, a total of 10 sheep were used. Fibrosis in two lung segments of each sheep in a similar manner as performed in Example 1 herein. Using this procedure (as detailed further below) the fibrosis was confined to small, isolated regions in the lungs leaving the remaining 90-95% of the healthy unaffected lungs to undertake normal respiratory function.
(§2) All sheep (n=10) in the study were challenged with 2 single doses of bleomycin (3 units) per lung segment, a fortnight apart and the animals were kept for a little over 5 weeks after the final bleomycin dose. Bleomycin is a well-known agent for inducing fibrosis in the lungs. The administration procedure involves inserting a bronchoscope into lung segments in the right and left lung, and then slowly infusing the bleomycin into two segments as shown in FIG. 2 via the bronchoscope biopsy port. […]
Lung function was assessed in all test lung-segments (left and right caudal lobes, and medial lobe in each sheep). The functional capacity of the lung segments was measured through the endoscope using the procedure outlined in Example 1 herein. The lung function parameter assessed in this study is referred to as compliance in the lung segment (abbreviated to Cseg). […]

[2] = system: sheep model for pulmonary fibrosis, bleomycin-injured lung segments; assay: Example 2: CD4+ and CD8+ T cells in lung parenchyma (immunohistochemistry)
Excerpt: as §1
All sheep (n=10) in the study were challenged with 2 single doses of bleomycin (3 units) per lung segment, a fortnight apart and the animals were kept for a little over 5 weeks after the final bleomycin dose. Bleomycin is a well-known agent for inducing fibrosis in the lungs. The administration procedure involves inserting a bronchoscope into lung segments in the right and left lung, and then slowly infusing the bleomycin into two segments as shown in FIG. 2 via the bronchoscope biopsy port.
(§3) In the study detailed in Example 1 herein, the dose-rate of pinocembrin was 7 mg pinocembrin per sheep, per week.
For control purposes the lung segment in the opposite lung was used as a bleomycin-positive, without drug, control, as indicated in FIG. 1. The bioactive molecules in vehicle, were delivered as 5 ml infusions through the biopsy port of the bronchoscope. Note that to nullify any small differences (e.g. physiological or anatomical etc.) between the left and right lungs, the infusions of pinocembrin were randomized between the left and right caudal lung segments. Half the animals (5 sheep) received pinocembrin to the right caudal lung segments, while the other 5 sheep received pinocembrin to the left caudal lung segments. The right medial lung segment was left untreated and used for healthy lung control tissue which was sampled at autopsy (FIG. 2). […]
Immunohistochemistry was performed on these frozen tissue sections using the indirect immunoperoxidase technique. […] For cell counts, either 200 immunoperoxidase positive cells were counted in a maximum of 20 microscope fields (×400 magnification) using an area-calibrated grid, or a minimum of 20 microscope fields were counted for less frequent counts.

[3] = system: sheep model for pulmonary fibrosis, bleomycin-injured lung segments; assay: Example 2: hydroxyproline assay for collagen content; conditions: increase induced by bleomycin
Excerpt: as §1, §2
The hydroxyproline assay was used to extrapolate the collagen content and concentration of each segment. Briefly, frozen lung tissues from each segment were lyophilized to dry weight, hydrolyzed in 6M HCl, and assessed for hydroxyproline content by measuring the absorbance of reconstituted samples (in 0.1M HCl) at 558 nm using a Beckman DU-64 spectrophotometer (Beckman Coulter Inc, Brea, Calif.). Hydroxyproline content was determined from a standard curve of trans-L-hydroxy-L-proline (Sigma-Aldrich).). […]

[4] = system: sheep; assay: Example 2: animal health and safety of pinocembrin administration
Method: as §3
For control purposes the lung segment in the opposite lung was used as a bleomycin-positive, without drug, control, as indicated in FIG. 1. The bioactive molecules in vehicle, were delivered as 5 ml infusions through the biopsy port of the bronchoscope. Note that to nullify any small differences (e.g. physiological or anatomical etc.) between the left and right lungs, the infusions of pinocembrin were randomized between the left and right caudal lung segments. Half the animals (5 sheep) received pinocembrin to the right caudal lung segments, while the other 5 sheep received pinocembrin to the left caudal lung segments. The right medial lung segment was left untreated and used for healthy lung control tissue which was sampled at autopsy (FIG. 2).
The sheep were bled at the times indicated in FIG. 1 by sampling 10 ml of blood from the jugular vein into a tube containing heparin. The blood was processed for blood cell count analyses.
Health checks were routinely performed throughout the treatment periods and throughout the trial until euthanasia.

[5] = week 12 post-mortem, vs bleomycin alone, 4 weekly infusions of 7 mg, n=10 sheep
[6] = pinocembrin treatment period, 10 sheep
[7] = throughout the pinocembrin treatment period, 10 sheep

Structure (SMILES): O=C1CC(c2ccccc2)Oc2cc(O)cc(O)c21 (centres unmarked) [pinocembrin, 5,7-Dihydroxy-2-Phenyl-2,3-Dihydro-4H-Chromen-4-One]
- lung function in lung segments injured by bleomycin (summary) ([1]; 4 weekly doses of 7 mg, n=10 sheep): significantly improved
- sheep with improved function (Cseg) in bleomycin-damaged, pinocembrin-treated lung segments ([1]; individual sheep data, 4 weekly infusions of 7 mg, 10 sheep): eight out of ten
- percentage change in compliance from baseline ([1]; week 0 to week 11, after four weekly administrations, n=10 sheep): significantly improved
- mean segmental compliance (Cseg) compared with untreated healthy control lung segments ([1]; week 11, 7 mg in 10% DMSO infused into bleomycin-injured caudal segment, 4 weekly doses, n=10 sheep): not significantly different from the untreated healthy control lung segments
- sheep with lower CD8+ and CD4+ T cells after pinocembrin treatment ([2]; individual sheep data, 10 sheep): All sheep
- numbers of CD4+ T cells in the lung parenchyma [2, 5]: significantly lower; also recorded: significant reduction
- numbers of CD8+ T cells in the lung parenchyma [2, 5]: significantly lower; also recorded: significant reduction
- collagen content (hydroxyproline assay) ([3]; 4 weekly treatments of 7 mg, 10 sheep (FIG. 16A)): did not reduce; also recorded: not associated with a significant decrease; also recorded: did not address the increase
- collagen content (hydroxyproline assay) ([3]; all 13 sheep of Examples 1 and 2 (FIG. 16B)): does not reduce
- untoward health effects (clinical assessment criteria) ([4]; all ten sheep undergoing the trial): no untoward health effects
- differential counts of blood leukocytes ([4]; both sampling time points, 10 sheep): within normal ranges
- additional pathology or lung damage in pinocembrin exposed segments ([4]; lung segment exposed to pinocembrin, post-mortem): no obvious signs of additional pathology or lung damage
- adverse health events [4, 6]: no otherwise adverse health events
- weight gain [4, 6]: expected normal range
- core temperature readings [4, 7]: within the normal range
- heart, and respiratory rates [4, 7]: within normal ranges
- animal health during treatment period ([4]; week 8 to week 12, 7 mg per sheep per week into one lung segment, 10 sheep): remained healthy

Source: patent US20230172901A1, “COMPOSITIONS AND METHODS FOR THE PROPHYLAXIS AND TREATMENT OF FIBROTIC AND INFLAMMATORY CONDITIONS” (GRETALS AUSTRALIA PTY LTD, priority 2020, published 2023)
